Results: patent publication US20260217768A1, “NANOPARTICLE-NHE3 PEPTIDE TO TREAT DIARRHEA” (The Johns Hopkins University, priority 2023, published 2026)

Tests used:
NHE3 = NHE3 activity in differentiated human enteroid monolayers after nanoparticle delivery of peptide; type: cell-based
Description: NHE3 activity in PS120, Caco-2/BBe cells and human jejunal enteroids was determined fluorometrically (Photon Technologies Incorporated) using the intracellular pH sensitive dye BCECF, as reported (Levine et al., 1993; Sarker et al., 2008; Foulke-Abel et al., 2020). PS120/HA3-NHE3 cells were seeded on glass cover slips and studied at 70-80% confluency. Caco-2/BBe/HA3-NHE3 cells were grown to confluency on Transwell inserts (polyester, 0.4-μm pore size) and studied approximately 14-16 days pod. Human duodenal enteroid monolayers on Transwell inserts were differentiated for 5 days in the absence of Wnt3a, R-spondin, and noggin as described (Noel et al., 2017; Staab et al., 2020).
Rates of Na^+/H^+ exchange were determined as Na^+-dependent alkalinization in the presence of 50-μM HOE-694 (to inhibit all other plasma membrane NHE isoforms) in HCO3-free solutions, with internal calibration using the nigericin/K+ method, as previously described (Sarker et al., 2008; Foulke-Abel et al., 2020). Kinetic analysis was used for PS120 cell studies (expressed as Vmax) and initial rates (ΔpH/min) for Caco-2/BBe cells, mouse intestine in vitro, and human enteroids. For in vitro mouse jejunal transport studies, NHE3 activity (in the presence of 50-μM HOE-694) was measured using SNARF-4F at 37° C. in a perfusion chamber using a two-photon microscope (Olympus FV1000) and 25× objective, as described (Murtazina et al., 2011).
PBAE polymer and peptide were separately dissolved in pH 7.4 150-mM PBS and combined at a 1:1 volume ratio. Final concentrations of the components were 6-ng/μL peptide and 180-ng/μL polymer (30:1 polymer: peptide weight ratio). Polymer and peptide nanoparticles were allowed to self-assemble at room temperature for 10 minutes. For characterization, nanoparticles were diluted 1:5 in PBS. Hydrodynamic diameter and zeta potential were measured using a Malvern Zetasizer Pro (Malvern Panalytical, Malvern, UK). Stability was assessed by incubating nanoparticles at RT up to 45 minutes then measuring hydrodynamic diameter over 45 minutes. […]

adenylate cyclase-cAMP = assay: cAMP assay in human enteroid monolayers exposed to FSK; type: cell-based; details: nanoparticles with 250-nM peptide, FSK (10 μM) 45 min, CP-2 vs N3SP-1Δ7
Description: Human jejunal enteroid monolayers on Transwell inserts (Corning Cat #: 3470) were differentiated for 5 days and then in serum-free media were exposed apically to nanoparticles containing either 250-nM CP-2 or N3SP-1Δ7. The peptide and polymer in PBS were prepared just before use, allowed to combine for 10 min before being added to the apical surface of enteroid monolayers at room temperature. Monolayers were incubated for 4 hours at 37° C., 5% CO2 incubator before the nanoparticles were removed, then monolayers were washed 3 times with cold PBS and changed to differentiation media and moved to a 37° C. incubator. Differentiation media was removed 24 hours later and washed twice with CMGF-media (Advanced DMEM/F12 with 10-mM Hepes, 10-mM GlutaMax, and 1000 Units/mL Penn/Strep). Next, 100 μL of CMGF-media containing 10-mM Theophylline, 50-μM Cilostazol and 50-μM Rolipram was added to the apical and basolateral surfaces followed by exposure to FSK (10 μM) at 37° C., 5% CO2, for 45 min before apical and basolateral media were collected and cells were lysed in 200-μL 0.1 M HCl for cAMP analysis. CAMP in apical, basolateral, and cells was determined using nonradioactive, CAMP-ELISA kits from ENZO Life Sciences (Loerrach, German), using the acetylation protocol in which the yellow-colored product is inversely proportional to the amount of CAMP present in the sample.

Substance: N3SP-1 lacking first seven N-terminal amino acids: RPSTVEASVSYLLRESASAVCLDMQSLEQRR [Peptide N3SP-1Δ7]
- NHE3 activity after FSK, % of same peptide without FSK (NHE3; nanoparticles (250 nM) 18 h, FSK exposure, n=4): 88.0%
- increase of basal NHE3 activity compared to CP-2 (NHE3; nanoparticles added apically (250 nM) for 18 h, n=4, p=0.043): 36.0%
- FSK-increased intracellular cAMP (adenylate cyclase-cAMP): similar
